We go through 1 molecule from US20250082592A1, “PHARMACEUTICAL COMPOSITION FOR PREVENTION, ALLEVIATION OR TREATMENT OF SARCOPENIA, CONTAINING ROR-alpha ACTIVATOR JC1-40” (SEOUL NATIONAL UNIVERSITY R & DB FOUNDATION, priority 2021, published 2025).

Assay [1] deals with C2C12 cells. Kind of assay: Protein expression of NRF1 and TFAM, Western blotting. It is filed as cell-based. Particulars: JC1-40 20 μM. As to the method:
Using a method identical to the above, after treating C2C12 cells with the compound JC1-40, the expression of the mitochondrial biosynthesis regulators, NRF1 and TFAM proteins, was analyzed by Western blotting. Specific antibodies for NRF1 (Santa Cruz Biotechnology), TFAM (Santa Cruz Biotechnology), and α-tubulin (Millipore) were also used.
(A western blot detects proteins with antibodies after separation by electrophoresis.)

The next assay deals with TFAM promoter. Kind of assay: TFAM promoter transcriptional activity, human TFAM-Luc reporter luciferase assay in C2C12 cells. It is filed as cell-based. Conditions: JC1-40 20 μM, 24 hours. As to the method: C2C12 cells (1×10^5 cells/well) were seeded in a 12-well culture plate and cultured overnight in DMEM containing 10% FBS. The C2C12 cells were maintained at 37° C. in a humidified incubator with 5% CO2 and 95% air. After 24 hours of cultivation, human TFAM-Luc reporter (100 ng) was transfected into C2C12 cells using PolyFect (QIAGEN). After 24 hours post-transfection, the medium was changed to DMEM differentiation medium containing 2% horse serum, and treated with JC1-40 (20 μM) and solvent (control group). 24 hours later, cell lysates were obtained and luciferase activity was analyzed and determined using an analytical luminescence luminometer.

In assay [2] the test system is C2C12 cells. Kind of assay: mRNA expression of mitochondrial constituent genes (SDHA, COX5A, MCAD), real-time PCR. It is filed as cell-based. Particulars: JC1-40 20 μM, 48 hours. As to the method:
C2C12 cells (8×10^5 cells/dish) were seeded in a 60 mm dish and cultured in DMEM (Dulbecco's modified Eagle's medium) medium containing 10% FBS (fetal bovine serum). C2C12 cells were maintained at 37° C. in a humidified incubator with 5% CO2 and 95% air. After 48 hours of cultivation, the medium was changed to DMEM differentiation medium containing 2% horse serum, and the cells were treated with JC1-40 (20 μM) and solvent (control group). After 48 hours from the replacement of the differentiation medium, RNA was extracted. For extraction, the cells were dissolved with EASY BLUE (Intron, Korea), and isopropanol fractionation and ethanol precipitation were utilized. cDNA was synthesized from each RNA sample, and oligomers amplifying the cDNA of specific genes were utilized, monitoring the expression of R-actin as a control group. More specifically, an mRNA-M-MLV mixture was prepared using M-MLV reverse transcriptase (Invitrogen), and reverse transcription polymerase chain reaction was conducted using a thermal cycler. Subsequently, real-time polymerase chain reaction was performed using the ABI StepOnePlus Real-Time PCR system (Applied Biosystems).
(In general: In qPCR the cycle at which signal appears reflects the starting amount.)

Assay [3] concerns C2C12 cells. Nature of the assay: mRNA expression of mitochondrial biosynthesis regulators (PGC-1α, NRF-1, NRF-2α, TFAM), real-time PCR. It is filed as cell-based. Conditions: JC1-40 20 μM, 48 hours. On the procedure:
C2C12 cells (8×10^5 cells/dish) were seeded in a 60 mm dish and cultured in DMEM (Dulbecco's modified Eagle's medium) containing 10% FBS (fetal bovine serum). The C2C12 cells were maintained at 37° C. in a humidified incubator with 5% CO2 and 95% air. After 48 hours of cultivation, the medium was changed to DMEM differentiation medium containing 2% horse serum, and treated with JC1-40 (20 μM) and solvent (control group). 48 hours after changing to the differentiation medium, RNA was extracted. The RNA extraction method is as described in Example 3. The results of the mRNA expression of mitochondrial biosynthesis regulators PGC-1α(Peroxisome proliferator-activated receptor gamma coactivator 1-alpha), NRF-1 (Nuclear Respiratory Factor 1), NRF-2a (Nuclear Respiratory Factor 2 alpha), and TFAM (Mitochondrial transcription factor A) induced by JC1-40 are shown in FIG. 4A.

Assay [4] deals with C2C12 cells. Nature of the assay: Mitochondrial membrane potential, TMRM staining of C2C12 myotubes. Format: cell-based. Particulars: JC1-40 20 μM, 48 hours in differentiation medium, vs solvent control. On the procedure:
C2C12 cells (2×10^5 cells/well) were seeded in a 12-well culture plate and cultivated in DMEM (Dulbecco's modified Eagle's medium) medium containing 10% FBS (fetal bovine serum). The C2C12 cells were maintained at 37° C. in a humidified incubator with 5% CO2 and 95% air. After 48 hours of cultivation, the medium was changed to DMEM (Dulbecco's modified Eagle's medium) differentiation medium containing 2% horse serum, and the cells were treated with JC1-40 (20 μM) and solvent (control group). 48 hours after changing the differentiation medium, the mitochondria of the C2C12 cells were stained with Tetramethylrhodamine, Methyl Ester, and Perchlorate (TMRM) 600 nM. After 20 minutes, the medium was replaced with new medium containing TMRM 150 nM, and red fluorescence was observed after 10 minutes.

A further assay concerns the target T1, RORα (Mus musculus, UniProt P51448).
T1 construct: endogenous in cells; host or cells: C2C12 cells
T1 sequence (P51448 1-523): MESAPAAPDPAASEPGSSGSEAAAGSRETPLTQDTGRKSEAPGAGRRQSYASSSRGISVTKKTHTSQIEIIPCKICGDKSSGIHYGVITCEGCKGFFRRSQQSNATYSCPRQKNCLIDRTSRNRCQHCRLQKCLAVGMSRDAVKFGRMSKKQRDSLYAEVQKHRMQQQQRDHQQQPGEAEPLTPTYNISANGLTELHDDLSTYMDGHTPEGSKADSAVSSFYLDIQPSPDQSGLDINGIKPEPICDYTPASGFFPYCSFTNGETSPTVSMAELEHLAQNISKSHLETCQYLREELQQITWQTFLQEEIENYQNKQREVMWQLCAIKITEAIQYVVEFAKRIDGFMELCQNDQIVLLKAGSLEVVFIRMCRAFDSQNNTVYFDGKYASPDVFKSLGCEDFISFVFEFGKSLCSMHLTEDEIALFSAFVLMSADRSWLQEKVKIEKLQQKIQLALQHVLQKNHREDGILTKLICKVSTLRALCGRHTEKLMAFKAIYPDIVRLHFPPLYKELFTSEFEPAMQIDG
Kind of assay: RORα dependency of TFAM expression, si-RORα transfection in C2C12 cells. It is filed as cell-based. Conditions: JC1-40 20 μM, 48 hours. On the procedure: C2C12 cells (8×10^5 cells/dish) were seeded in a 60 mm dish and cultured overnight in DMEM (Dulbecco's modified Eagle's medium) containing 10% FBS (fetal bovine serum). The C2C12 cells were maintained at 37° C. in a humidified incubator with 5% CO2 and 95% air. After 24 hours of cultivation, si-RORα (250 pmoles) and si-GL3 (control group) were transfected into C2C12 cells using Lipofectamine 2000 (Thermo Fisher Scientific). After 24 hours post-transfection, the medium was switched to DMEM differentiation medium containing 2% horse serum, and treated with JC1-40 (20 μM) for 48 hours. The methods for RNA and protein extraction were as previously mentioned.

A further assay concerns HeLa cells. Kind of assay: Mitochondrial quantity, MitoTracker Green staining of HeLa cells. Format: cell-based. Conditions: JC1-40 5 μM and 50 μM, 24 hours, vs solvent control. On the procedure: HeLa cells (4×10^4 cells/well) were seeded in a 12-well culture plate and cultivated overnight in DMEM (Dulbecco's modified Eagle's medium) medium containing 10% FBS (fetal bovine serum). The HeLa cells were maintained at 37° C. in a humidified incubator with 5% CO2 and 95% air. After 24 hours of cultivation, the medium was replaced and JC1-40 (5 μM, 50 μM), and solvent (control group) were treated for 24 hours.

Assay [5] concerns male C57BL/6 mice, high-fat diet. Kind of assay: High-fat diet-induced animal model, gastrocnemius tissue immunofluorescence. It is filed as in vivo. Conditions: JC1-40 5 mg/kg orally once a day for 5 weeks. As to the method: To confirm the correlation between the administration of JC1-40, an increase in mitochondrial biosynthesis, and the suppression of sarcopenia, experiments were conducted using a diet-induced animal model. Specifically, male C57BL/6 mice aged 5 weeks were acclimatized in a temperature and humidity-controlled environment for one week and were provided with a high-fat diet (fats derived from lard and soybean oil, 60 kcal % included, Research diets) for 12 weeks. From the 8th week of the diet, JC1-40 was orally administered once a day for 5 weeks at a concentration of 5 mg/kg (FIG. 6A). In detail, an amount of JC1-40 corresponding to the final concentration was measured and added to sterile water containing 0.5% carboxymethyl cellulose, and then uniformly suspended using a mortar and pestle to produce the drug. The dose for each mouse subject was taken and orally administered using a Sonde. The control group was administered sterile water containing 0.5% carboxymethyl cellulose in the same manner. After 12 weeks of diet were completed, the mice were anesthetized, the gastrocnemius tissue was extracted, and it was fixed using a 4% paraformaldehyde solution. The fixed tissue underwent washing, decalcification, and dehydration, and was ultimately made into a paraffin block using paraffin. The created paraffin block was cut into sections with a thickness of 3 μm, and after creating sections, protein expression was confirmed with fluorescence using specific antibodies for COX4 (Cytochrome c oxidase subunit 4, Santa Cruz Biotechnology) and TFAM (Mitochondrial transcription factor A, Santa Cruz Biotechnology).

As to `CNC(=S)NCc1ccc(OCc2ccccc2)cc1` [JC1-40, 1-methyl-3-[(4-phenylmethoxyphenyl)methyl]thiourea], in the assay with C2C12 cells [1], the “protein expression of NRF-1” value is reported as “increased” and the “protein expression of TFAM” value was “increased”. In the assay on TFAM promoter, the “transcriptional activity of the TFAM promoter (luciferase activity)” value is reported as “confirmed to be due to the transcriptional activity of the TFAM promoter”. Also, in the assay on C2C12 cells [2], the “mRNA expression of COX5A” value is “increased”, the “mRNA expression of MCAD” value is listed as “increased” and the “mRNA expression of SDHA” value was “increased”. In the assay with C2C12 cells [3], the “mRNA expression of NRF-1” value is recorded as “increased”, the “mRNA expression of NRF-2” value was “increased”, the “mRNA expression of PGC-1α” value is given as “increased” and the “mRNA expression of TFAM” value is given as “increased”. For the same molecule, the “red fluorescence (TMRM), mitochondrial membrane potential” value with C2C12 cells [4] is reported as “increased”. The “increase in TFAM expression with si-RORα” value on RORα (C2C12 cells transfected with si-RORα (250 pmoles)) was “did not occur”. Besides, the “protein expression of TFAM” value on RORα (C2C12 cells, si-GL3 control) is listed as “increased”. For the same molecule, the “green fluorescence (MitoTracker Green), quantity of mitochondria” value with HeLa cells is listed as “increased in a concentration-dependent manner”. Also, in assay [5], the “protein expression of COX4 in gastrocnemius tissue” value is “significantly increased”, the “protein expression of TFAM in gastrocnemius tissue” value is on record as “significantly increased” and the “sarcopenia induced by the high-fat diet” value is on record as “significantly improved”.
